Assay results reported in US12441710B2, “Substituted piperidino compounds and related methods of treatment” (Alkermes, Inc., priority 2020, dated 2025).

Key:
[1] = target: T1, human orexin-2 receptor (OX2R) (Homo sapiens, UniProt O43614); assay: Human OX2R IP1 assay; assay type: cell-based; settings: T-Rex CHO cells stably overexpressing human OX2R; IP1 accumulation, 1 hr at 37 degrees C
T1 construct: expressed in transfected cells
T1 sequence (O43614 1-444): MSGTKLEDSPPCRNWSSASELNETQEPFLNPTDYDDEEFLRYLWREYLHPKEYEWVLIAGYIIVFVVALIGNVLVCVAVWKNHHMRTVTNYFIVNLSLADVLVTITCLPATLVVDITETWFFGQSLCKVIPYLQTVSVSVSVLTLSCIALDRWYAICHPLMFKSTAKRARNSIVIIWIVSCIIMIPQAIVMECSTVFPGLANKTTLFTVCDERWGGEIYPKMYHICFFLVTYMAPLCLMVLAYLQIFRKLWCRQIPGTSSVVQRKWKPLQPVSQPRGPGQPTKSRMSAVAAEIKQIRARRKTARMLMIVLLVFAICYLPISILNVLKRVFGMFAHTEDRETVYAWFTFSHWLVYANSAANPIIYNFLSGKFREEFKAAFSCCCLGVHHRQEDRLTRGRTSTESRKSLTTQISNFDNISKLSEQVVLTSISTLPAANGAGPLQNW
Procedure: T-Rex CHO cells stably overexpressing the human orexin-2 receptor (OX2R) were induced overnight with 1 μg/mL of doxycycline in a T225 flask. 24 hours post induction, cells were lifted with accutase and plated into a 384-well proxy plate at 30,000 cells/well. Cells were then treated with different test compounds in 1× stimulation buffer containing 10 mM Hepes, 1 mM CaCl2), 0.5 mM MgCl2, 4.2 mM KCl, 146 mM NaCl, 5.5 mM glucose, and 50 mM LiCl, pH 7.4, for 1 hr at 37 degrees C. Following incubation, the reaction was terminated by the addition of detection mix, which is composed of IP1-d2 and anti-IP1-cryptate diluted in lysis buffer as well as 1× stimulation buffer. The plates were allowed to incubate for 1 hour at room temperature and were then read in the EnVision® multimode plate reader, measuring inositol phosphate levels.
Cisbio IP1 is a cell-based functional assay quantifying the accumulation of inositol monophosphate (IP), a metabolite released as a result of orexin 2 receptor activation through the phospholipase C-Gq signaling pathway. This is a competitive immunoassay in which the IP1 produced by the cells upon receptor activation competes with the IP1 analog coupled to the d2 fluorophore (acceptor) for binding to an anti-IP1 monoclonal antibody labeled with Eu cryptate (donor). The measured HTRF-FRET based signal is inversely proportional to the IP1 concentration produced.
The EC50 values reported in Table 2 were obtained according to the human OX2R IP1 assay described above. Data are the mean EC50 values±S.E.M. The compound methyl (2R,3S)-3-((methylsulfonyl)amino)-2-(((cis-4-phenylcyclohexyl)oxy)methyl)-piperidine-1-carboxylate (sometimes referred to herein as Reference Compound A) is a reference compound which is disclosed in Example 5 of PCT publication no. WO2017/135306.

MDR1 = assay: MDCK-MDR1 permeability assay; assay type: in vitro ADME; settings: dog, 3 μM test compound; for efflux ratio at 2 h, 3 μM: Papp (B→A) divided by Papp (A→B), read-out: Efflux ratio (ER); for Papp A→B at 2 h, 3 μM: apical to basolateral, 2 hours at 37 degrees C
Procedure: The bidirectional permeability (Apical to Basal and Basal to Apical directions) of test compounds in MDCK-MDR1 cells were evaluated using MDCK-MDR1 cells seeded in Solvo PreadyPort™ MDCK 96-well plate. Once the plate was received from ReadyCell (Barcelona, Spain), it was treated as per PreadyPort™ user's manual.
For the Apical to Basolateral (A→B) permeability, 80 μL of test compound (3 μM) co-dosed with LY (Lucifer Yellow) (100 μM) in HBSS (Hank's Balanced Salt Solution) assay buffer was added to the donor side (A) while 250 μL of HBSS buffer was added to the receiver side (B). For the Basolateral to Apical (B→A) permeability, 255 μL of test compound (3 μM) in HBSS assay buffer was added to the donor side (B) while 75 μL of HBSS buffer containing LY (100 μM) was added to the receiver side (A).
The plate was placed in an incubator set at 37 degrees C. After 10 minutes of pre-warming, 5 μL aliquot was taken from donor compartment and set aside as the dosing solution. The MDCK-MDR1 incubation plate was placed back into the incubator for 2 hours of incubation at 37 degrees C. After 2 hours of incubation, 25 μL and 5 μL aliquots were removed from the receiver and donor sides, respectively. To the 5 μL aliquots taken from the donor sides (before and after a 2-hour incubation) were diluted with 20 μL of the HBSS buffer. All samples were mixed with 150 μL with acetonitrile containing internal standard (IS) and 200 μL water, and analyzed by LC-MS/MS.
The apparent permeability (Papp) was calculated using the following formula: Papp=dQ/dt×1/A×C0 where: • dQ/dt: amount of translocated material over incubation time (nmol/s) • A: area of insert (0.14 cm^2 for PreadyPort™ MDR1-96) • C0: initial concentration of product applied in apical (A→B) or basal (B→A) compartment (nmol/mL).
The efflux ratio (ER) was measured by dividing the Papp (basolateral to apical direction) by Papp (apical to basolateral direction). It is a general measure of the involvement of active processes. An ER >2 is considered positive for active transport.
The data reported in Table 3 were obtained according to the MDCK-MDR1 permeability assay described above.

human hepatocytes = assay: Hepatocytes stability assay (human hepatocytes); assay type: in vitro ADME; settings: hepatic clearance divided by liver blood flow, fu assumed unity
Procedure: (§1) In vitro metabolic stability was assessed using cryopreserved hepatocytes from male Sprague Dawley rats and a pool of 50 mixed gender humans (BioIVT, Baltimore, MD). The incubation mixtures were prepared by mixing 250 μL of pre-warmed KHB (Krebs-Henseleit buffer) containing 2×10^6 cell/mL of hepatocytes with 250 μL of pre-warmed KHB buffer containing 2 μM of test compounds in a 48-well plate, giving a final concentration of 1 μM test compound (0.1% DMSO) and 1×10^6 cell/mL of hepatocytes. The reaction mixture was incubated at 37 degrees C. A 50 μL aliquot of incubation mixture was taken at time points (0, 15, 30, 60, 120 and 240 minutes) and transferred into a 96-well plate containing 300 μL ice-cold acetonitrile (containing 30 ng/mL of labetalol and 10 ng/mL of Naltrexone-d3 as internal standards) and immediately placed in ice to terminate the reaction. Samples were centrifuged, and supernatants were transferred into 96-well plates for liquid chromatography with tandem mass spectrometry (LC-MS/MS) analysis to monitor the depletion of the test compound. Data was calculated as percent remaining by assuming zero-minute time point peak area ratio (analyte/IS) as 100% and dividing remaining time point peak area ratios by zero-minute time point peak area ratio. Data were fitted to a first-order decay model to determine half-life. From a plot of log (ln) peak area against time, the slope of the line was determined. Subsequently, half-life (T1/2) and intrinsic clearance (CLint) were calculated using the equations below: • Elimination rate constant (k)=(−slope) • Half-life (T1/2) min=0.693/k • Intrinsic Clearance (CLint) (mL/min/million cells)=(V×0.693)/T1/2 • V=incubation volume mL/number of cells The in vitro T1/2 was converted to in vitro intrinsic clearance (CLint,hep) in units of mL/min/kg using the formula shown below: The in vitro intrinsic clearance (CLint,hep) was scaled to in vivo hepatic clearance (CL,hep) using the following equation which was adapted from a well-stirred model. [formula] where Q is the liver blood flow and fu is the fraction unbound (assumed to be unity in this case). All parameters used in the calculation are shown below (Table 4). The extraction ratio (ER) was calculated by dividing the hepatic clearance of a compound to the liver blood flow. The data reported in Table 5 were obtained according to the human hepatocytes stability assay described above.

[2] = Hepatocytes stability assay (human hepatocytes); assay type: in vitro ADME; settings: both sexes, cryopreserved hepatocytes, 1 μM test compound, 1×10^6 cell/mL, read-out: CLint (μL/min/million cells)
Procedure: as §1

| Structure (SMILES) | EC50 [1] | efflux ratio at 2 h, 3 μM (MDR1) | Papp A→B at 2 h, 3 μM (MDR1) | Extraction Ratio (ER) (human hepatocytes) | hepatocyte CLint at 1 μM [2] |
| --- | --- | --- | --- | --- | --- |
| C[C@@]1(COC2CCC(c3ccccc3)CC2)CN(c2ccccn2)CC[C@@H]1NS(C)(=O)=O (some centres unmarked) [Compound 29] | – | > 17 | < 0.42 ×10⁻⁶ cm/s | 0.82 | 30 µL/min/1e6 cells |
| CS(=O)(=O)N[C@H]1CCN(c2nccc3ocnc23)CC1COC1CCC(c2ccccc2)CC1 (some centres unmarked) [Compound 45] | – | 2.2 | 1.9 ×10⁻⁶ cm/s | 0.94 | 103 µL/min/1e6 cells |
| CS(=O)(=O)N[C@H]1CCN(c2ccccn2)CC1COC1CCC(c2ccc(O)cc2)CC1 (some centres unmarked) [Compound 32] | – | 34 | 0.41 ×10⁻⁶ cm/s | 0.94 | 110 µL/min/1e6 cells |
| CS(=O)(=O)N[C@H]1CCN(c2cnccn2)CC1COC1CCC(c2ccccc2)CC1 (some centres unmarked) [Compound 21] | – | 35 | 0.69 ×10⁻⁶ cm/s | 0.94 | 101 µL/min/1e6 cells |
| CS(=O)(=O)N[C@H]1CCN(c2ccc(F)cn2)CC1COC1CCC(c2ccccc2)CC1 (some centres unmarked) [Compound 24] | – | 30 | 0.28 ×10⁻⁶ cm/s | 0.86 | 42 µL/min/1e6 cells |
| CS(=O)(=O)N[C@H]1CCN(c2ccncn2)CC1COC1CCC(c2ccccc2)CC1 (some centres unmarked) [Compound 20] | – | 17 | 1.1 ×10⁻⁶ cm/s | 0.90 | 60 µL/min/1e6 cells |
| CS(=O)(=O)N[C@H]1CCN(c2ccccn2)CC1COC1CCC(c2ccncc2)CC1 (some centres unmarked) [Compound 4] | – | 14 | 1.2 ×10⁻⁶ cm/s | 0.89 | 57 µL/min/1e6 cells |
| CS(=O)(=O)N[C@H]1CCN(c2ccccn2)CC1COC1CCC(c2ccccc2F)CC1 (some centres unmarked) [Compound 5] | – | > 7.2 | < 0.9 ×10⁻⁶ cm/s | 0.88 | 49 µL/min/1e6 cells |
| CS(=O)(=O)N[C@H]1CCN(c2cccnn2)CC1COC1CCC(c2ccccc2)CC1 (some centres unmarked) [Compound 22] | – | 23 | 1.3 ×10⁻⁶ cm/s | 0.89 | 56 µL/min/1e6 cells |
| CS(=O)(=O)N[C@H]1CCN(c2cccc(F)n2)CC1COC1CCC(c2ccccc2)CC1 (some centres unmarked) [Compound 23] | – | > 5.4 | < 2 ×10⁻⁶ cm/s | 0.79 | 25 µL/min/1e6 cells |

Results, then the molecule that gave them:

| EC50 [1] | efflux ratio at 2 h, 3 μM (MDR1) | Papp A→B at 2 h, 3 μM (MDR1) | Extraction Ratio (ER) (human hepatocytes) | hepatocyte CLint at 1 μM [2] | Structure (SMILES) |
| --- | --- | --- | --- | --- | --- |
| < 100 nM | 2.8 | 1.3 ×10⁻⁶ cm/s | 0.87 | 44 µL/min/1e6 cells | CS(=O)(=O)N[C@H]1CCN(c2ccccn2)C[C@H]1CO[C@H]1CC[C@@H](c2cccc(F)c2)CC1 [Compound 6] |
| – | 24 | 1.7 ×10⁻⁶ cm/s | 0.88 | 50 µL/min/1e6 cells | CS(=O)(=O)N[C@H]1CCN(c2ccccn2)CC1COC1CCC(c2cccnc2)CC1 (some centres unmarked) [Compound 3] |
| – | > 4.3 | < 1.2 ×10⁻⁶ cm/s | 0.85 | 39 µL/min/1e6 cells | CS(=O)(=O)N[C@H]1CCN(c2ccccn2)CC1COC1CCC(c2ccc(F)cc2)CC1 (some centres unmarked) [Compound 7] |
| – | > 6.9 | < 0.28 ×10⁻⁶ cm/s | 0.83 | 32 µL/min/1e6 cells | Cc1cccc(C2CCC(OCC3CN(c4ccccn4)CC[C@@H]3NS(C)(=O)=O)CC2)c1C (some centres unmarked) [Compound 17] |
| – | 12 | 1.3 ×10⁻⁶ cm/s | 0.94 | 102 µL/min/1e6 cells | CS(=O)(=O)N[C@H]1CCN(c2ccccn2)CC1COC1CCC(c2cccc(C#N)c2)CC1 (some centres unmarked) [Compound 35] |
| – | > 7.9 | < 0.9 ×10⁻⁶ cm/s | 0.87 | 43 µL/min/1e6 cells | Cc1cccc(C2CCC(OCC3CN(c4ccccn4)CC[C@@H]3NS(C)(=O)=O)CC2)c1 (some centres unmarked) [Compound 16] |
